Data: ChEMBL document CHEMBL3507680, “University of Dundee, Gates Library screen for HepG2 cell viability”

Experiment: Human HepG2 cell viability assay in 384 well format
Assay type: toxicity, cell-based
Set-up: dose 125 nL, time 70.5 hour; concentration not given beside the values
Conditions: HepG2 cells, read-out: Inhibition

Compound	cytotoxicity at 70.5 h [%]
O=C(NCCc1ccccn1)N1CCSC2(CCCCC2)C1	1.93
Cc1ccc(N2C[C@@H]3CN(C(=O)c4ccccc4)CCO[C@@H]3C2)nn1	23.3
CCC(=O)N1CCc2onc(CNS(C)(=O)=O)c2C1	9.89
COc1ccccc1CN(C)C(=O)CN1CC(n2nc(C)cc2C)C1	-2.12
Cc1nc(-c2ccccc2)sc1CNC1CCc2ncnn2C1 (stereo not given)	-10.6
O=C(NCCc1ccccc1)NCCN1CCC(c2cccs2)CC1	8.49
CCCNC(=O)Cn1cc(-c2ccccc2)cn1	1.15
CCc1nc(C)c(C(=O)NCCn2nc3ccccn3c2=O)s1	-3.88
CCN(C)S(=O)(=O)NCC1CCN(Cc2ccccc2F)C1 (stereo not given)	-10.5
Cc1nccc([C@H]2C[C@@H]3CCN(Cc4ccco4)C[C@H]3O2)n1	-10.9
CCCc1nnnn1Cc1cn2c(C)cccc2n1	-2.3
CN1CCCc2sc(C(=O)NCc3cccnc3)nc21	-10.4
CCCn1cc(NC2CCSCC2)cn1	2.92
COc1cccc(CNc2nnc(C(C)(C)C)o2)c1OC	-11.6
Cc1noc(C2CCC3(CCN(C(=O)c4cnn(C)c4)CC3)O2)n1 (stereo not given)	-10.3
COCC(=O)NCc1cc(=O)n2c(n1)CN(Cc1cccs1)CCC2	-6.99
O=C1NCC(C(=O)Nc2ncc(Cc3ccc(F)cc3F)s2)N1 (stereo not given)	-3.7
CCn1nc(C)c(CNC(=O)c2cn(CC3CCCO3)nn2)c1C (stereo not given)	-1.67
CCOCCN1CCN(CC(O)c2ccc(OC)cc2)CC1 (stereo not given)	36.2
CN(C)c1ncnc2c1CCN(Cc1nccs1)CC2	-6.81
COC(=O)N1CCN(C(=O)c2ccc(C)c(N3CCNC3=O)c2)CC1	14
c1ccc(-n2nnnc2NCc2ccc3c(c2)OCO3)cc1	4.41
CN(C)c1nc2c(c(N3CCC(O)CC3)n1)CN(CC1CCNC1)CC2 (stereo not given)	-11.3

Compound	cytotoxicity at 70.5 h [%]
c1ccc2c(c1)C(NC1CCCC1)CC21CCNCC1 (stereo not given)	-1.32
Cc1nn(C)c2c(NCCn3cccn3)ncnc12	5.55
N#Cc1cccc(CN2CC[C@@H]3[C@@H]2CC(=O)N3Cc2ccncc2)c1	-3.67
CC1CCc2c(c3ccccc3[nH]c2=O)O1 (stereo not given)	-6.86
Cc1cc(NC(C)c2nncn2C2CCCC2)n2nc(C)c(C)c2n1 (stereo not given)	-12.4
CC(C)C[C@H](NCc1cc(O)c2cccc(F)c2n1)C(N)=O	-11.8
N#Cc1cccc(OCCN2CCCC2C(=O)Nc2nccs2)c1 (stereo not given)	29
O=C(Nc1ccc(Cl)cc1C(=O)NCCN1CCOCC1)c1ccco1	-0.882
CN1CCc2[nH]cnc2C12CCN(C(=O)c1noc3c1CCCC3)CC2	-10.9
O=C(CNC(=O)C1(c2ccc(F)cc2F)CCC1)Nc1cccnc1	31.2
Cn1cccc1-c1cc(C(=O)N2CCCC2C(F)(F)F)[nH]n1 (stereo not given)	-5.87
COc1cccc(CN(C)Cc2ccc(C#N)cc2)c1OC	-1.54
Cc1cc(OCCC(=O)NCc2ccc(F)cc2)nnc1C	0.423
CCc1nnc(CNC2CCN(c3ncnc4c(C)csc34)CC2)s1	-1.72
CCc1cccc(N2CCC(NC(=O)c3ccc(=O)[nH]n3)CC2)c1	-0.843
CN(C)CCN1CCN(Cc2ccco2)Cc2cccnc21	-4.07
Cc1ccc(CNC(=O)NC(C)Cn2cccn2)cn1 (stereo not given)	-9.6
Cc1ccc(C2(CN(C)Cc3snnc3C)CCNCC2)nc1	-1.57
COC(=O)CNCC1(O)CCCN(Cc2cccc(F)c2F)C1=O (stereo not given)	-0.438
c1cc2c(cc1CN1CCC(Cc3noc(C4CC4)n3)CC1)OCCO2	20.2
OCCN1CCC(CNCc2ccc(N3CCCCC3)cc2)CC1	1.15
Cc1ncccc1C(=O)NCC(C)Oc1ccc(F)cc1 (stereo not given)	24.4
CCCN1CCC(Cc2nn3c(C(C)C)nnc3s2)CC1	10.4

Compound	cytotoxicity at 70.5 h [%]
Cc1c(C(=O)NCCC(=O)N2CCOCC2)sc2ccc(F)cc12	1.17
Cc1nccn1-c1cccc(C2CCCN(C(=O)c3cc[nH]n3)C2)n1 (stereo not given)	24.4
CCc1nn(C)c(Cl)c1CN1CCC(c2cc(O)nc(C)n2)CC1	-10.5
COc1cccc(CN(C)C(=O)CN2CCN(c3nccs3)CC2)c1	-9.6
COCC(=O)NC(C)Cc1cccc(Br)c1 (stereo not given)	33.7
CC/C=C(\C)CN1CCC(CNC(=O)c2c[nH]c(=O)c(Cl)c2)C1 (stereo not given)	12.8
COCc1cccc(NC(C(N)=O)c2ccc(Br)cc2)c1 (stereo not given)	-9.42
CC(C)COC(=O)N1CCC2(CCNC2)C1 (stereo not given)	-10.5
CC(C)(C)c1coc([C@@H]2COCCN2Cc2ccccn2)n1	2.91
COCCNc1cc(-c2ccccc2C(=O)O)c2cc[nH]c2n1	-10.4
CCC(CC)NC(=O)c1cccnc1-n1cccn1	18
O=C1N(CC2CC2)C(c2cncs2)NC12CCCC2 (stereo not given)	-4.01
CNc1nc2c(s1)C(=O)CN(C(=O)NCCc1ccccc1)C2	17.6
Cc1oc(C(=O)O)cc1S(=O)(=O)Nc1cc(Br)ccc1Cl	1.56
O=C(C[C@H]1[C@H]2CN(c3ncccn3)C[C@@H]12)Nc1cccnc1	4.76
CN(C)C(=O)CN1CCC2(CCN(S(=O)(=O)C3CC3)CC2)C1=O	-11.2
CC(C)(C)c1n[nH]c(C2CN(Cc3ncc[nH]3)CCO2)n1 (stereo not given)	-0.788
Cc1nc(CN2C(=O)CC[C@@H]3[C@H]2CCN3C(=O)c2ccno2)cs1	-1.87
CC(c1nc(C2CC2)no1)N1CCN(Cc2cccnc2)CC1 (stereo not given)	-6.99
CS(=O)(=O)N[C@H]1CCO[C@]2(CCN(CC3CCOCC3)C2)C1	-11.1
Cc1nn(-c2ncnc3[nH]cnc23)c2c1C(C(C)C)CC(=O)N2 (stereo not given)	-1.6
CN(C)CCn1c(=O)n(C)c(=O)c2ccccc21	18.7
OC1CN(Cc2cccc(N3CCOCC3)c2)Cc2ccccc21 (stereo not given)	-0.922

Compound	cytotoxicity at 70.5 h [%]
Cc1nc(CN2CC[C@H]3[C@H]2CCN3c2nncs2)cs1	-3.7
COC[C@H]1CCC[C@]12CN(CCc1ccccc1)CCO2	-15.8
CC1c2ncc(CNC(=O)C3CC3)n2CCN1CC1CCC1 (stereo not given)	-10.3
CC(C)N1CCC(C(=O)N2CCN(c3cccc(C(=O)O)c3)CC2)CC1	-9.74
Cc1cnnn1Cc1ncn2c1CN(Cc1cccs1)CCC2	4.51
CC1(C)CN(c2cc(C3CC3)ncn2)C[C@]1(C)O	21.7
O=C(c1cnccn1)N1CC[C@@H]2CO[C@@H](CN3CCCC3)[C@@H]2C1	-5.22
COCCn1cnnc1CN(C)c1nc(N)ncc1C	-14.6
COC[C@H]1CN(CC2CC2)C(=O)[C@@H]2CCN(Cc3ccoc3)CC[C@H]12	-4.84
CCOCCn1nnc(C2(NC(=O)c3ccccc3)CCCC2)n1	3.3
O=C1NCCCc2[nH]c(Cc3cccc(F)c3)nc21	-8.57
CC(C)c1cc(CN(C)C(=O)CN2CCC(C(N)=O)CC2)no1	-14.7
COc1ccncc1NC(=O)C1(c2ccc(F)cc2)CCC1	-6.62
O=C(NCc1nncn1C1CCCCC1)C1COc2ccccc2O1 (stereo not given)	-7.82
O=S(=O)(NCC(O)c1ccc2c(c1)CCO2)c1ccccc1F (stereo not given)	-13.3
O=C(NCCCn1cccn1)C1CCC(=O)N(Cc2ccccc2F)C1 (stereo not given)	4.27
c1cn2c(n1)CN(C1CCOCC1)CC(CN1CCCC1)C2 (stereo not given)	-2.92
CCC(C)N(Cc1cccnc1)Cc1ccc2c(c1)OCCO2 (stereo not given)	3.73
CC(C)(C)c1ccc2c(c1)CCN2C(=O)c1[nH]c(=O)[nH]c(=O)c1N	-6.44
CCN(CCn1cccn1)Cc1nc(-c2ccc(F)cc2)oc1C	-6.91
Cc1cc(F)ccc1CNCCn1cccn1	-1.75
O=C(CCN1CCC(C(=O)c2cc(F)ccc2F)CC1)NC1CC1	-0.804
Cc1ncc(CN2CCCC2c2ccc(C(=O)NCc3ccoc3)s2)s1 (stereo not given)	-0.861

Compound	cytotoxicity at 70.5 h [%]
Cc1ccc(C(=O)N2CCCC(n3cccn3)C2)cc1S(C)(=O)=O (stereo not given)	0.0611
CC(C)(C)c1cnc(CN2CCC[C@H]2CO)o1	0.665
COc1ccc(CN2CCCN(C(=O)C(C)n3ccnc3)CC2)cc1 (stereo not given)	-4.32
Cc1nc(C2CCCN(C(C)C)C2)sc1Br (stereo not given)	-4.14
CCN1CCC12CCN(C(=O)c1cc(C)on1)C2 (stereo not given)	-2.64
Cc1cnn(CCC(=O)Nc2cccnc2N2CCC(CO)CC2)c1	-1.8
Cc1ccc(CNC2CCN(CCc3ccncc3)CC2)s1	1.18
CN(C)C(=O)CNC(=O)c1nc2c(s1)CCCN2Cc1ccccc1	-2.15
c1ccc(-c2nc3c(c(NCc4n[nH]c5c4CCC5)n2)CCNC3)cc1	12.6
COc1cccc2c1OCC(CNC(=O)CSc1ccccn1)C2 (stereo not given)	-6.38
COCCn1/c(=N\C(=O)CN(C)S(C)(=O)=O)sc2cc(C)ccc21	14.4
CCN1CC(C(=O)NCc2ccnc(-n3cccn3)c2)CC1=O (stereo not given)	-4.01
COc1ccc(NC(=O)CCNc2ncccn2)cn1	-30.9
CCNC(=O)CN(CC)C(=O)c1cc(-c2cccc(Cl)c2)no1	-0.184
N#Cc1cc(NC(=O)c2cc[nH]n2)ccc1N1CCC(O)CC1	9.29
c1coc(CN2CCCC3(COCCN(Cc4c[nH]nn4)C3)C2)c1 (stereo not given)	-2.53
COc1cccc(-n2cc(-c3ccnc(N[C@@H](CO)C(C)C)n3)cn2)c1	13.3
CC(C)c1ncc(CN2CCCC(CO)C2)cn1 (stereo not given)	-8.2
COc1ccccc1CNC(=O)Cn1ncc2c1c(C)nn2C	0.128
COc1cc(S(=O)(=O)N2CCc3ccc(F)cc32)cc(C(=O)O)c1OC	10.1
Cc1ccc(OCCN(C)C(C)c2cccc(S(N)(=O)=O)c2)cc1 (stereo not given)	1.1
O=C(c1cnccn1)N1C[C@@H]2OCC(=O)N(CC3CCCCC3)[C@@H]2C1	-0.096
COCCN(C)CCN1CC2(CCN(C3CCNCC3)CC2)OC1=O	-10.2
